Source: paper PMC7139691, “Effect of Arginine on Chaperone-Like Activity of HspB6 and Monomeric 14-3-3ζ” (International Journal of Molecular Sciences, 2020)

Target: T1, HspB6 (Homo sapiens, UniProt O14558)
T1 construct: recombinant wild type; small oligomers of 55-60 kDa (dimers and tetramers)
T1 sequence (O14558 1-160): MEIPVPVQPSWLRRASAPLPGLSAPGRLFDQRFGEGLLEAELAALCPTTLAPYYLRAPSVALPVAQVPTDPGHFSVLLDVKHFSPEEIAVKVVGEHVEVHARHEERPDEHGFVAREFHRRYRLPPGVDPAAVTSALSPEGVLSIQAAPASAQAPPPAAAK
Assay: intrinsic tryptophan fluorescence titration
Assay type: binding
Conditions: read-out: Kdiss

Kd: 10 ± 3 mM
SMILES: N=C(N)NCCC[C@H](N)C(=O)O [arginine]
